In assay [1] the target is T1, Fetal Liver Tyrosine Kinase 3 (FLT3) (Homo sapiens, UniProt P36888).
T1 sequence (P36888 27-993): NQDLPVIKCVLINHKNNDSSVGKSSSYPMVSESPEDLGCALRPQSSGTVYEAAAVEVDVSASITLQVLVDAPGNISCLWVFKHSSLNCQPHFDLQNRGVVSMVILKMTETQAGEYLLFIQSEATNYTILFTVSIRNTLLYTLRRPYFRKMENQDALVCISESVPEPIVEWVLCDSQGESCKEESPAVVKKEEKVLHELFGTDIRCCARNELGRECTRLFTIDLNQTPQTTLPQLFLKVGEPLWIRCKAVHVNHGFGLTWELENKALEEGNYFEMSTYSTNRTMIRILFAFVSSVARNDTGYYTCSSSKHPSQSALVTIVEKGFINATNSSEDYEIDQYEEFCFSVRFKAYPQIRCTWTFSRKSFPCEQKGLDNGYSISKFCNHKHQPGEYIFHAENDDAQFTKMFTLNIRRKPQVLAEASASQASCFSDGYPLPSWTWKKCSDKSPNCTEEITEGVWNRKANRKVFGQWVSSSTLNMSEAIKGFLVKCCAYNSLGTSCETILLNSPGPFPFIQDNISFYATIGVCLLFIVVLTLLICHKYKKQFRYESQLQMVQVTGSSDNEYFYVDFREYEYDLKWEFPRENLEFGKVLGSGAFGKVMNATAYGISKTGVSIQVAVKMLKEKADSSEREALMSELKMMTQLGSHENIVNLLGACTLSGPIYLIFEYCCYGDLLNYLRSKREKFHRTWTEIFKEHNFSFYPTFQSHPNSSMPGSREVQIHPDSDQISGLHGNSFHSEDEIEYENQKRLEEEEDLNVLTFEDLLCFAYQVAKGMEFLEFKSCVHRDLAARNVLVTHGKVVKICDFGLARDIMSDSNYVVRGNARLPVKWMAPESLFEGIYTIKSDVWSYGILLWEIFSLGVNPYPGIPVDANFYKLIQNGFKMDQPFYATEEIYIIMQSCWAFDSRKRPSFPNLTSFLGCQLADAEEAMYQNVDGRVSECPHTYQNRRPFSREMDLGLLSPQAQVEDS
As to the kind of experiment: Kinase profiling (KINOMEscan / SelectScreen) and dose response follow-up, FLT3. The settings on record: ATP equal to Km. It counts as biochemical. The protocol: (§1) Effect of CT-179 on protein kinase activity was evaluated using the Thermofisher Scientific SelectScreen Kinase Profiling Service. Over 400 human protein kinases were tested in the presence of 1 μM final concentration of CT-179 at an ATP concentration equal to the known ATP Km for each kinase. The experiment was done by Curtana Pharmaceuticals. Data is presented as percentage of inhibition of enzyme activity. Software CORAL was used to make the kinome tree, which is available from: http://phanstiel-lab.med.unc.edu/CORAL/.

The target in another assay is KIT (Homo sapiens, UniProt P10721). As to the kind of experiment: Kinase profiling (KINOMEscan / SelectScreen), KIT. The note with it: ATP equal to Km. It is filed as biochemical. The protocol:
as §1

A further assay has as its system Daoy MB cell line. Kind of assay: Cell viability, 7 days treatment, Daoy. It counts as cell-based. The settings on record: Homo sapiens, 168 h. As for the experimental part: (§2) Cell proliferation was determined by a CellTiter 96® Non-Radioactive Cell Proliferation Assay (Promega) kit. Absorbance at 490 nm was measured on a Biotek PowerWave (Biotek, USA) plate scanner to obtain raw data. Average absorbance from triplicate wells were plotted against concentration using GraphPad Prism software v.7.0 (GraphPad software). At the indicated time points, cells were stained using FITC-conjugated Annexin V and Annexin V binding buffer (BD Pharmingen™) according to the manufacturer’s instructions. Annexin V or propidium iodide (PI)-positive cells were analyzed using a Fortessa 5 Flow Cytometer (Becton Dickinson) and data was analyzed using FlowJo® software (Tree Star).

In another assay the test system is Med-813 MB cell line. Kind of assay: Cell viability, 7 days treatment, Med-813. It counts as cell-based. The settings on record: Homo sapiens, 168 h; Med-813, 7 days. As for the experimental part:
as §2

The next assay has as its system R403 and R902 MBOs. As to the kind of experiment: MB explant organoids (MBOs), cleaved caspase-3 staining. The settings on record: 1 μM, 48 hours, CT-179 alone. It counts as cell-based, human. The source says:
MB cell lines Daoy, UW228, and D283 were obtained from the American Type Culture Collection (ATCC) and cultured in RPMI supplemented with 1% Penicillin-Streptomycin, 1% GlutaMax-I CTS (Gibco) and 10% fetal bovine serum (FBS) (Gibco). MB002, D425 and PER547 primary cell lines were kindly provided by Dr. Tobias Schoep (Telethon Kids Institute, WA). Med-2312 PDX, Neo-113 PDX, Med-2112 PDX, Med-113 PDX and Med-813 PDX were filter tissues purchased from the Olson Laboratory (https://research.fhcrc.org/olson/en/btrl.html). Cell lines derived from the corresponding PDX tissues were labelled as primary cell lines. MB-R201 PDX is a MB PDX model generated and established in our laboratory. MB-R203 is a primary MB cell line. Primary cell lines were derived from MB patient specimens and cultured either in serum-free media grown as spheres or on matrigel. The serum-free media was prepared as previously described. Fresh surgically resected MB tissues were obtained from Queensland Children’s Tumor Bank. MB explant organoids (MBOs), R403 and R901, were generated by microdissection under a stereomicroscope (Zeiss) within a laminar flow biosafety cabinet. The MBOs were cultured in glioblastoma organoid (GBO) medium modified based on Jacob et al.. All cell lines were incubated at 37 °C under 5% CO2/95% humidified air atmosphere. […]

KIT, sequence (P10721 26-976): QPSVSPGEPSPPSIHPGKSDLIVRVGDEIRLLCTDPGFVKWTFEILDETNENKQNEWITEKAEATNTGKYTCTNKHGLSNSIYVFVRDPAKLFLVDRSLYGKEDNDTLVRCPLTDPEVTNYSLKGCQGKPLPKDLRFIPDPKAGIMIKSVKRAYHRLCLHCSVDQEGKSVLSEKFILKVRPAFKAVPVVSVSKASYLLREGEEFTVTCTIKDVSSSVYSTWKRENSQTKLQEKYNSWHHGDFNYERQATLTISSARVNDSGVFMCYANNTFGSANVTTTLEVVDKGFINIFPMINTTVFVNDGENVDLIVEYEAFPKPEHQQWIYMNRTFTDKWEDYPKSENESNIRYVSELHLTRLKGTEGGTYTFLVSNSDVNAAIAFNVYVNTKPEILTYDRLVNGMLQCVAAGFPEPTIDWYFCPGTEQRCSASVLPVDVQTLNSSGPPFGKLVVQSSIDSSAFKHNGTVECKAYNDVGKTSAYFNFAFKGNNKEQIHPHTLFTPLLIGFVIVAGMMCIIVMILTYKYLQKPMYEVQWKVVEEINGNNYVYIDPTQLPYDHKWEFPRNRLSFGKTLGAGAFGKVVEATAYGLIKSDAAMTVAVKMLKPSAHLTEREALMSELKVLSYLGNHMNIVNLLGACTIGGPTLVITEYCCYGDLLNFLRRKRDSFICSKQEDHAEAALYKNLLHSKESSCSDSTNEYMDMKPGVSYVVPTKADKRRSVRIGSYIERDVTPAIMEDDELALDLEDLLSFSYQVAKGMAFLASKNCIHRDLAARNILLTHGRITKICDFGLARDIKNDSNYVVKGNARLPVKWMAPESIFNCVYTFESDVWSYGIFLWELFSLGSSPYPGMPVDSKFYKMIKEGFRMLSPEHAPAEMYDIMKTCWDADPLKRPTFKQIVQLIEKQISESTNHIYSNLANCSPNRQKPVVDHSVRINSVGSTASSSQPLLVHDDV

One may read the inhibition as the percentage by which the read-out fell short of the control. Higher therefore signals strong suppression. For orientation: IC50 means the point on the concentration scale where inhibition reaches its midpoint. Take `Cc1cc(NCCCN(C)C)nc(NC(=O)Nc2ccc(Cl)c(Cl)c2)n1` [CT-179]: the inhibition at 1 µM was found to be 84% in assay [1] and 66% against KIT. Also, the IC50 turned out to be 144 nM in the assay with Daoy MB cell line and 965 nM in the assay on Med-813 MB cell line. In addition, the “cell death, cleaved caspase-3 staining” value in the assay on R403 and R902 MBOs is “significant cell death”.

Source of the values: article PMC10275055, “Preventing recurrence in Sonic Hedgehog Subgroup Medulloblastoma using the OLIG2 inhibitor CT-179” (Research Square, 2023).
